# Source: patent US12178839B2, “Anti-obesity agent, pollakiuria improving agent, and autonomic nervous activity regulator” (ASAHI GROUP HOLDINGS, LTD., priority 2018, dated 2024)
# Ends that are not written are not given here.
# Test system: Male Wistar rats
# Assay: Rat spontaneous urination test (metabolism cage), Test Example 6
# Assay type: in vivo
# Conditions: aqueous 0.1 mg/mL LNDP solution as drinking for 7 days
# Method: It was confirmed from Test Example 2 that LNDP promotes the efferent hypogastric nerve activity, and it was confirmed from Test Example 3 that LNDP inhibits the efferent the pelvic splanchnic nerve activity. Influence on the bladder, which is one of the internal organs dominated by these nerves, was therefore investigated.
# Male Wistar rats which are 13 weeks old were received, and quarantined and acclimated in a thermostat animal room at 18 to 28° C. in a cycle including a 12-hour light period and a 12-hour dark period for 1 week, and ten 14- to 16-week-old rats per group were tested. An aqueous 0.1 mg/mL LNDP solution or water was ingested from drinking for 7 days, and the urination amount was measured as weight with an electronic balance installed under a urine-collecting opening in raising with a metabolism cage. The weight data of the electronic balance every minute were automatically inputted into a computer. […] The total urination amount and the frequency of urination per day were found, and the urine amount per one time of urination (=the total urination amount per day/the frequency of urination per day) was calculated as to an individual of each group. […] As to the comparison of the test substance and ingestion days with respect to each measured value, two-way analysis of variance (two-way ANOVA) with replication was performed.
sequence,measurement,value
"NIPPLTQTPVVVPPFLQPE [LNDP, Asn-Ile-Pro-Pro-Leu-Thr-Gln-Thr-Pro-Val-Val-Val-Pro-Pro-Phe-Leu-Gln-Pro-Glu]",significant difference in change in body weight vs water ingestion group,not observed
same,significant difference in the general symptoms vs water ingestion group,not observed
